According to US20160263131A1, “TREATMENT OF HEPATIC FIBROSIS USING AN INHIBITOR OF CBP/CATENIN” (priority 2013, published 2016):

How the values were obtained:
[1] = tested on: NASH mice; assay: Liver hydroxyproline content in NASH mice; format: in vivo, C57BL/6J mice; settings: μg per mg total protein, 10 mg/kg oral QD 9-12 wks, mean±SD, Disease-control 1.09±0.42, no significant difference
Experimental: To quantify liver hydroxyproline content, frozen liver samples (35-45 mg) were processed by an alkaline-acid hydrolysis method as follows: the livers were defatted with 100% acetone, dried in the air, dissolved in 2N NaOH at 65° C., and autoclaved at 121° C. for 20 minutes. The lysed samples (400 μL) were acid-hydrolyzed with 400 μL of 6N HCl at 121° C. for 20 minutes, and neutralized with 400 μL of 4N NaOH containing 10 mg/mL activated carbon. AC buffer (2.2M acetic acid/0.48M citric acid, 400 μL) was added to the samples, followed by centrifugation to collect the supernatant. To construct a standard curve of hydroxyproline, serial dilutions of trans-4-hydroxy-Lproline (Sigma-Aldrich) were prepared starting at 16 μg/mL. The prepared samples and standards (each 400 μL) were mixed with 400 μL chloramine T solution (Wako Pure Chemical Industries, Japan) and incubated for 25 minutes at room temperature. The samples were then mixed with Ehrlich's solution (400 μL) and heated at 65° C. for 20 minutes to develop the color. After samples were cooled on ice and centrifuged to remove precipitates, the optical density of each supernatant was measured at 560 nm. The concentrations of hydroxyproline were calculated from the hydroxyproline standard curve. Protein concentrations of liver samples were determined using a BCA protein assay kit (Thermo Fisher Scientific, USA) and used to normalize the calculated hydroxyproline values. Hydroxyproline levels were expressed as μg per mg total protein.

[2] = tested on: Collagen Type 3; assay: Quantitative RT-PCR of liver, Collagen Type 3 mRNA, NASH mice; format: in vivo, C57BL/6J mice; settings: 10 mg/kg oral QD 9-12 wks, 12 weeks of age, mean ± SD, n = 8, Normal 1.00 ± 0.16, Disease-control 2.27 ± 0.35, tended to be down-regulated, 10 mg/kg
Experimental: (§1) Total RNA was extracted from liver samples using RNAiso (Takara Bio, Japan) according to the manufacturer's instructions. One μg of RNA was reverse-transcribed using a reaction mixture containing 4.4 mM MgCl2 (Roche, Switzerland), 40 U RNase inhibitor (Toyobo, Japan), 0.5 mM dNTP (Promega, USA), 6.28 μM random hexamer (Promega), 5× first strand buffer (Promega), 10 mM dithiothreitol (Invitrogen, USA) and 200 U MMLV-RT (Invitrogen) in a final volume of 20 μL. The reaction was carried out for 1 hour at 37° C., followed by 5 minutes at 99° C. Real-time PCR was performed using real-time PCR DICE and SYBR premix Taq (Takara Bio). To calculate the relative mRNA expression level, the expression of each gene was normalized to that of reference gene 36B4 (gene symbol: Rplp0). Information of PCR-primer sets and the plate layout was described in Table 1.

[3] = tested on: NASH mice; assay: Liver TG content in NASH mice; format: in vivo, C57BL/6J mice; settings: 10 mg/kg oral QD 9-12 wks, mean±SD, Disease-control 67.7±17.7, significant decrease
Experimental: Liver total lipid-extracts were obtained from right lobes by Folch's method (Folch J. et al, J. Biol. Chem. 1957; 226 (1): 497). The livers were homogenized in chloroform-methanol (2:1, v/v) and incubated overnight at room temperature. After washing with chloroform-methanol-water (8:4:3, v/v/v), the extracts were evaporated to dryness, and dissolved in isopropanol. Liver TG levels were measured by Triglyceride E-test (Wako Pure Chemical Industries). Extracts were diluted 2- to 4-fold in isopropanol when the TG contents exceed the limit of detection.

[4] = tested on: NASH mice; assay: Sirius red staining, fibrosis area in liver of NASH mice; format: in vivo, C57BL/6J mice; settings: NASH mice, 10 mg/kg oral QD 9-12 wks, 12 weeks of age, mean ± SD, n = 8; Disease-control 1.09 ± 0.27; significantly decreased; 10 mg/kg
Experimental: C57BL/6J mice (15-day pregnant female) were obtained from Charles River Laboratories Japan (Kanagawa, Japan). All animals used in this study were housed and cared for in accordance with the Japanese Pharmacological Society Guidelines for Animal Use. The animals were maintained in a SPF facility under controlled conditions of temperature (23±2° C.), humidity (45±10%), lighting (12-hour artificial light and dark cycles; light from 8:00 to 20:00) and air exchange. A high pressure (20±4 Pa) was maintained in the experimental room to prevent contamination of the facility. The animals were housed in polycarbonate cages KN-600 (Natsume Seisakusho, Japan) with a maximum of 4 mice per cage. Sterilized PULMASμ (Material Research Center, Japan) was used for bedding and replaced once a week. Sterilized solid HFD was provided ad libitum, being placed in the metal lid on top of the cage. Pure water was provided ad libitum from a water bottle equipped with a rubber stopper and a sipper tube. Water bottles were replaced once a week, cleaned and sterilized in autoclave and reused. Mice were identified by numbers engraved on earrings. Each cage was labeled with a specific identification code.

[5] = tested on: NASH mice; assay: Liver weight and liver-to-body weight ratio in NASH mice; format: in vivo, C57BL/6J mice; settings: 10 mg/kg oral QD 9-12 wks, mean±SD
Experimental: (§2) The viability, clinical signs and behavior were monitored daily. Body weight was recorded daily before drug administration. […] The animals were sacrificed by exsanguination through direct cardiac puncture under ether anesthesia (Wako Pure Chemical Industries).

[6] = tested on: α-SMA; assay: Quantitative RT-PCR of liver, α-SMA mRNA, NASH mice; format: in vivo, C57BL/6J mice; settings: 10 mg/kg oral QD 9-12 wks, 12 weeks of age, mean ± SD, n = 8, Normal 1.00 ± 0.60, Disease-control 2.43 ± 1.33, no significant difference, 10 mg/kg
Experimental: as §1

[7] = tested on: NASH mice; assay: Whole blood glucose in NASH mice; format: in vivo, C57BL/6J mice; settings: 10 mg/kg oral QD 9-12 wks, mean±SD, Disease-control 682±63, significantly increased
Experimental: (§3) Non-fasting blood glucose was measured in whole blood using Life Check (EIDIA, Japan). For serum biochemistry, blood was collected in polypropylene tubes without anticoagulant and kept at room temperature for 30 minutes, followed by at 4° C. for 1 hour. The blood samples were then centrifuged at 1,000×g for 15 minutes at 4° C. The supernatant was collected and stored at −80° C. until use. Serum ALT and TG levels were measured by FUJI DRI-CHEM 7000 (Fujifilm, Japan).

[8] = tested on: NASH mice; assay: Serum TG in NASH mice; format: in vivo, C57BL/6J mice; settings: 10 mg/kg oral QD 9-12 wks, mean±SD, Disease-control 558±256, no significant difference
Experimental: as §3

[9] = tested on: TIMP-1; assay: Quantitative RT-PCR of liver, TIMP-1 mRNA, NASH mice; format: in vivo, C57BL/6J mice; settings: 10 mg/kg oral QD 9-12 wks, 12 weeks of age, mean ± SD, n = 8, Normal 1.00 ± 0.25, Disease-control 7.04 ± 2.13, tended to be down-regulated, 10 mg/kg
Experimental: as §1

[10] = tested on: NASH mice; assay: HE staining and NAFLD Activity score in NASH mice; settings: 10 mg/kg oral QD 9-12 wks, compared with Disease-control group
Experimental: NASH was induced in 40 male mice by a single subcutaneous injection of 200 μg streptozotocin (Sigma-Aldrich, USA) 2 days after birth and feeding with high fat diet (HFD, 57 kcal % fat, cat# HFD32, CLEA Japan, Japan) after 4 weeks of age. The mice were randomized into 5 groups of 8 mice at 9 weeks of age. Eight male littermates, fed with normal diet (cat# CE-2, CLEA Japan) without streptozotocin treatment, were used for the Normal group.
The test substance solution was filled in the osmotic pumps at concentrations determined based on the individual body weight at the start of treatment (day 0). Telmisartan was administered by oral route in a volume of 10 mL/kg body weight.
Telmisartan was administered once daily at a dose of 10 mg/kg body weight.
For HE staining, sections were cut from paraffin blocks of liver tissue prefixed in Bouin's solution and stained with Lillie-Mayer's Hematoxylin (Muto Pure Chemicals, Japan) and eosin solution (Wako Pure Chemical Industries).

[11] = tested on: NASH mice; assay: Serum ALT in NASH mice; format: in vivo, C57BL/6J mice; settings: 10 mg/kg oral QD 9-12 wks, mean±SD, Disease-control 38±8, no significant difference
Experimental: as §3

[12] = Body weight and general condition of NASH mice; settings: mouse, in vivo
Experimental: as §2

CCCc1nc2c(C)cc(-c3nc4ccccc4n3C)cc2n1Cc1ccc(-c2ccccc2C(=O)O)cc1 [Telmisartan, reference compound]
Liver hydroxyproline content [1]: 0.95 ± 0.25 µg/mg
Collagen Type 3 mRNA expression level (relative, normalized to 36B4) [2]: 1.73±0.33
Liver TG content [3]: 30.6 ± 5.6 mg/g
Sirius red-positive area (fibrosis area) [4]: 0.50±0.10%
Liver-to-body weight ratio ([5]; Disease-control 8.1±0.6, significant decrease): 6.9±0.7%
Mean liver weight ([5]; Disease-control 1867±183, significant decrease): 1376 ± 80 mg
α-SMA mRNA expression level (relative, normalized to 36B4) [6]: 1.83±0.36
Whole blood glucose (non-fasting) [7]: 880 ± 39 mg/dL
Serum TG [8]: 843 ± 609 mg/dL
TIMP-1 mRNA expression level (relative, normalized to 36B4) [9]: 4.10±1.18
HE-stained liver sections: fat deposition, hepatocellular ballooning and inflammatory cell infiltration [10]: marked improvements
Serum ALT [11]: 35±6 U/L
General condition [12]: No deterioration
